In US20150104415A1, “Treatments of Hepatitis C virus infection” (DEBIOPHARM INTERNATIONAL SA, priority 2011, published 2015):

Tested on: HCV GT1
Experiment: Randomized, double-blind, placebo-controlled phase II study of DEB025 plus SOC (peg-IFNα2a plus RBV); virologic response by HCV RNA
Assay type: in vivo, patients
Procedure: This is an international, multicentre, randomized, double-blind, placebo-controlled, 4-arm, parallel-group phase II study comparing therapy with three doses of DEB025 (600 mg QD, 800 mg QD and 400 mg BID) plus SOC (peg-IFNα2a once weekly plus RBV BID) versus triple therapy with placebo matching DEB025 plus SOC in chronic HCV GT1 patients who were non-responders to prior SOC treatment, or who have relapsed after SOC treatment.
Approximately 344 patients will be randomized into one of 4 treatment arms (A, B, C (C1/C2) and D) in a 1:1:1:1 ratio. C1 and C2 patients will be randomized in a 1:1 ratio within arm C.
The randomization will be stratified by response status to previous treatment (non-responders/relapsers), BMI (<25 kg/m2 or ≧25 kg/m2) and IL28B polymorphism (CC or CT/TT) at screening.
The ratio non-responders and relapsers should be kept at 50% (172 patients) of the study population. An international, multicentre, randomized, double-blind, placebo-controlled, 4-arm, parallel-group phase II study comparing triple therapy with three doses of alisporivir (400 mg, 600 mg or 800 mg)+standard of care (SOC) versus triple therapy with placebo matching alisporivir plus SOC in […] chronic HCV GT1 patients who were non-responders to prior SOC treatment, or relapsers after SOC treatment is provided.
Patients are randomized into one of 4 treatment arms as described below in a 1:1:1:1 ratio. The randomization will be stratified by response status to previous treatment (non-responders/relapsers), BMI (<25 kg/m2 or ≧25 kg/m2) and IL28B polymorphism (CC or CT/TT) at screening. The ratio non-responders and relapsers should be kept at 50% (172 patients) of the study population.
• Alisporivir/Placebo 3 capsules of 200 mg (600 mg) alisporivir 2×/day (BID) orally for 1 week (loading dose) followed by 3 capsules of 200 mg (600 mg) alisporivir once per day (QD) plus 1 capsule of placebo QD for 47 weeks. Only in week 17 (dummy loading) patients receive 3 capsules of 200 mg (600 mg) alisporivir in the morning and 3 capsules of placebo in the evening. • Peg-IFNα2a 180 μg subcutaneously (s.c.) once weekly for 48 weeks • Ribavirin 1000 mg/day (<75 kg) or 1200 mg/day (≧75 kg) orally in two divided doses for 48 weeks
• alisporivir/Placebo 3 capsules of 200 mg (600 mg) alisporivir 2×/day orally for 1 week (loading dose) followed by 4 capsules alisporivir (800 mg) QD for 47 weeks. Only in week 17 (dummy loading) patients receive 3 capsules of 200 mg (600 mg) alisporivir in the morning and 1 capsule of 200 mg alisporivir plus 2 capsules of placebo in the evening. • Peg-IFNα2a 180 μg subcutaneously (s.c.) once weekly for 48 weeks • Ribavirin 1000 mg/day (<75 kg) or 1200 mg/day (≧75 kg) orally in two divided doses for 48 weeks Treatment C1 (will change to active treatment if cEVR not reached=arm C1A) • Placebo 3 capsules of placebo BID orally for 1 week (loading dose) followed by 4 capsules placebo QD for 47 weeks. […]
• Placebo alisporivir 1 capsule of placebo QD (in the morning) orally for 48 weeks 2 capsules of 200 mg (400 mg) alisporivir 2×/day orally for 48 weeks
• 180 μg s.c. once weekly for 48 weeks • Ribavirin 1000 mg/day (<75 kg) or 1200 mg/day (≧75 kg) orally in two divided doses for 48 weeks Treatment C2 (will change to active treatment if cEVR not reached=arm C2A) • DEB025 placebo 3 capsules of placebo orally in the morning and 2 capsules of placebo in the evening for 48 weeks. • Peg-IFNα2a 180 μg s.c. once weekly for 48 weeks • Ribavirin 1000 mg/day (<75 kg) or 1200 mg/day (≧75 kg) orally in two divided doses for 48 weeks
• Placebo 3 capsules of placebo orally as morning dose and 2 capsules of placebo as evening dose for 16 weeks. […]

[1] = Arm A, DEB 600 QD plus peg-IFNα2a/RBV, N = 81
[2] = Arm B, DEB 800 QD plus peg-IFNα2a/RBV, N = 84
[3] = Arm D, DEB 400 BID plus peg-IFNα2a/RBV, N = 78
[4] = DEB 400 BID arm plus SOC, Week 12

## C/C=C/C[C@@H](C)[C@@H](O)[C@H]1C(=O)N[C@@H](CC)C(=O)N(C)[C@H](C)C(=O)N(CC)[C@@H](C(C)C)C(=O)N[C@@H](C(C)C)C(=O)N(C)[C@@H](CC(C)C)C(=O)N[C@@H](C)C(=O)N[C@H](C)C(=O)N(C)[C@@H](CC(C)C)C(=O)N(C)[C@@H](CC(C)C)C(=O)N(C)[C@@H](C(C)C)C(=O)N1C [DEB025, alisporivir]
Arm A, DEB 600 QD (600 mg BID 1 week loading) plus peg-IFNα2a/RBV, N = 81, GT1 relapsers/non-responders
  RVR (rapid virologic response): patients with HCV RNA < LOQ (25 IU/mL) after 4 weeks of treatment: 19 (23.5) n (%)
[1]
  EVR: HCV RNA decrease >= 2 log10 from baseline or < LOQ (25 IU/mL) after 12 weeks: 64 (79.0) n (%)
  cEVR (complete early virologic response, primary endpoint): HCV RNA < LOQ (25 IU/mL) after 12 weeks: 36 (44.4) n (%)
  pEVR (partial early virologic response): HCV RNA decrease >= 2 log10 from baseline and > LOQ (25 IU/mL) after 12 weeks: 28 (34.6) n (%)
Arm B, DEB 800 QD (600 mg BID 1 week loading) plus peg-IFNα2a/RBV, N = 84
  RVR (rapid virologic response): patients with HCV RNA < LOQ (25 IU/mL) after 4 weeks of treatment: 18 (21.4) n (%)
[2]
  EVR: HCV RNA decrease >= 2 log10 from baseline or < LOQ (25 IU/mL) after 12 weeks: 72 (85.7) n (%)
  cEVR (complete early virologic response, primary endpoint): HCV RNA < LOQ (25 IU/mL) after 12 weeks: 48 (57.1) n (%)
  pEVR (partial early virologic response): HCV RNA decrease >= 2 log10 from baseline and > LOQ (25 IU/mL) after 12 weeks: 24 (28.6) n (%)
[3]
  EVR: HCV RNA decrease >= 2 log10 from baseline or < LOQ (25 IU/mL) after 12 weeks: 63 (80.8) n (%)
  RVR (rapid virologic response): patients with HCV RNA < LOQ (25 IU/mL) after 4 weeks of treatment: 29 (37.2) n (%)
  cEVR (complete early virologic response, primary endpoint): HCV RNA < LOQ (25 IU/mL) after 12 weeks: 55 (70.5) n (%)
  pEVR (partial early virologic response): HCV RNA decrease >= 2 log10 from baseline and > LOQ (25 IU/mL) after 12 weeks: 8 (10.3) n (%)
DEB 400 BID arm plus SOC, Week 4
  proportion achieving RVR: 37.2%
[4]
  proportion achieving EVR: 80.8%
  proportion achieving cEVR: 70.5%
Week 4, all the DEB025 treatment arms (600 QD, 800 QD, 400 BID) plus SOC
  patients achieved RVR: > 20%
Week 12, all the DEB025 treatment arms (600 QD, 800 QD, 400 BID) plus SOC
  patients achieved EVR: ≥ 79%
